The subject of test [1] is THP-1. Nature of the test: cells. The conditions noted are these: Homo sapiens, THP-1, 72 h.
Description: Antiproliferative activity against human THP-1 cells assessed as inhibition of cell growth incubated for 72 hrs by MTT assay
The target of a further test is Histone deacetylase 5 (Homo sapiens, UniProt Q9UQL6). Put plainly: Inhibition of HDAC5 (unknown origin).
The test system of test [2] is CAL-27. Put plainly: Antiproliferative activity against human CAL-27 cells overexpressing HDAC4 assessed as inhibition of cell growth incubated for 72 hrs by MTT assay. It counts as functional, cell-based. The conditions noted are these: CAL-27, 72 h.
A further test deals with T1, Histone deacetylase 11 (Homo sapiens, UniProt Q96DB2).
T1 sequence (Q96DB2 whole entry): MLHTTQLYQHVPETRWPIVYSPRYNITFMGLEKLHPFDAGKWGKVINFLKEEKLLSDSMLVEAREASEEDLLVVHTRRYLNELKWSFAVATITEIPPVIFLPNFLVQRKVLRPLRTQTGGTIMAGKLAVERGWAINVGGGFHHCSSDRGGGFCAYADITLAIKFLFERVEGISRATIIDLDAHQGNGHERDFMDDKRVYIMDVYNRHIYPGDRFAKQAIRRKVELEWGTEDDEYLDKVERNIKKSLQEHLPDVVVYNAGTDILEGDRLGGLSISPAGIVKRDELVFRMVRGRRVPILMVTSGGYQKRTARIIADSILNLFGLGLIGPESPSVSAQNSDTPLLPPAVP
Put plainly: Inhibition of HDAC11 (unknown origin).

Test [3] has as its system THP-1. Put plainly: Induction of apoptosis in human THP-1 cells assessed as caspase3/7 activation at 5 uM incubated for 48 hrs by Hoechst 33342 staining based assay. Type of test: functional, cell-based.
Test [4] addresses T2, Protein deacetylase HDAC6 (Homo sapiens, UniProt Q9UBN7).
T2 sequence (Q9UBN7 whole entry): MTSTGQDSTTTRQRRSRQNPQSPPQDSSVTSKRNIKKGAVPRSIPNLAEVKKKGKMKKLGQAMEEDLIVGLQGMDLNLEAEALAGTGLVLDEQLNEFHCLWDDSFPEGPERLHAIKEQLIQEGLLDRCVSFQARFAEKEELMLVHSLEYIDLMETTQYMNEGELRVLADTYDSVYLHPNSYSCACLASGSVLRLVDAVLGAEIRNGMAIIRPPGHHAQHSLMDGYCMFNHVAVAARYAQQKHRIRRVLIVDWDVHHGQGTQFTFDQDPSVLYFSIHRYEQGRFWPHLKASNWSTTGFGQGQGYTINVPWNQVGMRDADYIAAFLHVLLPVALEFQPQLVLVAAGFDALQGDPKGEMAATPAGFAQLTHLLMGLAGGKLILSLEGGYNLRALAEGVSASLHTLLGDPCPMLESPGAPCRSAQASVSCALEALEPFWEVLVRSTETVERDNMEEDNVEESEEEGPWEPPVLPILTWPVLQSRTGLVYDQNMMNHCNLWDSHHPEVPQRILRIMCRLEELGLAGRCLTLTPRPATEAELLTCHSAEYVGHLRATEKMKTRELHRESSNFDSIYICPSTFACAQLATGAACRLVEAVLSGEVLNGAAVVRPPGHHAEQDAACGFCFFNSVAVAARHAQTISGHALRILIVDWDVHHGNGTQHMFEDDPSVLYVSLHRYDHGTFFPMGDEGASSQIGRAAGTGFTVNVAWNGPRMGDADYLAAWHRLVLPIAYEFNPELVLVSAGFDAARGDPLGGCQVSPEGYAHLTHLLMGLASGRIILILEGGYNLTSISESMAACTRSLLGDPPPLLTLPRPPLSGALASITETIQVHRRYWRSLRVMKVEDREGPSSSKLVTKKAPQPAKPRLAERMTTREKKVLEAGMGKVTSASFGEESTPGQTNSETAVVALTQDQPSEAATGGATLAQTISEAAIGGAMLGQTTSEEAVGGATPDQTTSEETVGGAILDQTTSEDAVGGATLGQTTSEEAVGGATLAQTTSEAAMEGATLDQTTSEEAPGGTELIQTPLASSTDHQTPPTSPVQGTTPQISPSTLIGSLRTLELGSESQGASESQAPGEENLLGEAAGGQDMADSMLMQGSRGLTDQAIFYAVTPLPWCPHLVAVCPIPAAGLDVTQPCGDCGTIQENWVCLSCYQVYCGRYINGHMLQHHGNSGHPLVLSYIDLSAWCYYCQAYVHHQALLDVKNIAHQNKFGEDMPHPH
Put plainly: Inhibition of human recombinant HDAC6 using Boc-Lys(Ac)-AMC as substrate preincubated for 5 mins followed by substrate addition and measured after 90 mins by fluorescence based microplate reader analysis.

In test [5] the test system is THP-1. Put plainly: Synergistic effect on p21 protein expression in human THP-1 cells assessed as increase in p21 protein expression level at 5 uM incubated for 24 hrs in the presence of 7.9 nM bortezomib by Western blot analysis. Type of test: functional, cell-based. In general terms: A western blot detects proteins with antibodies after separation by electrophoresis.

In test [6] the test system is THP-1. Put plainly: Antiproliferative activity against human THP-1 cells assessed as reduction in cell viability at 100 uM incubated for 72 hrs by MTT assay relative to control. It counts as functional. In general terms: Tetrazolium assays rely on reduction of a dye to a coloured formazan, in cell work by metabolically active cells.
A short description of test [7]: Inhibition of Class IIa/8 HDAC in human THP-1 cells preincubated for 18 hrs followed by substrate addition and measured after 3 hrs by fluorescence based microplate reader assay. It counts as cell-based.
The nature of test [8]: Inhibition of Class I/IIb HDAC in human THP-1 cells preincubated for 18 hrs followed by substrate addition and measured after 3 hrs by fluorescence based microplate reader assay. Type of test: cell-based.
In the next test the target is Histone deacetylase 4 (Homo sapiens, UniProt P56524). Nature of the test: Inhibition of GST-tagged HDAC4 (unknown origin).
Sequence of Histone deacetylase 4 (P56524 whole entry): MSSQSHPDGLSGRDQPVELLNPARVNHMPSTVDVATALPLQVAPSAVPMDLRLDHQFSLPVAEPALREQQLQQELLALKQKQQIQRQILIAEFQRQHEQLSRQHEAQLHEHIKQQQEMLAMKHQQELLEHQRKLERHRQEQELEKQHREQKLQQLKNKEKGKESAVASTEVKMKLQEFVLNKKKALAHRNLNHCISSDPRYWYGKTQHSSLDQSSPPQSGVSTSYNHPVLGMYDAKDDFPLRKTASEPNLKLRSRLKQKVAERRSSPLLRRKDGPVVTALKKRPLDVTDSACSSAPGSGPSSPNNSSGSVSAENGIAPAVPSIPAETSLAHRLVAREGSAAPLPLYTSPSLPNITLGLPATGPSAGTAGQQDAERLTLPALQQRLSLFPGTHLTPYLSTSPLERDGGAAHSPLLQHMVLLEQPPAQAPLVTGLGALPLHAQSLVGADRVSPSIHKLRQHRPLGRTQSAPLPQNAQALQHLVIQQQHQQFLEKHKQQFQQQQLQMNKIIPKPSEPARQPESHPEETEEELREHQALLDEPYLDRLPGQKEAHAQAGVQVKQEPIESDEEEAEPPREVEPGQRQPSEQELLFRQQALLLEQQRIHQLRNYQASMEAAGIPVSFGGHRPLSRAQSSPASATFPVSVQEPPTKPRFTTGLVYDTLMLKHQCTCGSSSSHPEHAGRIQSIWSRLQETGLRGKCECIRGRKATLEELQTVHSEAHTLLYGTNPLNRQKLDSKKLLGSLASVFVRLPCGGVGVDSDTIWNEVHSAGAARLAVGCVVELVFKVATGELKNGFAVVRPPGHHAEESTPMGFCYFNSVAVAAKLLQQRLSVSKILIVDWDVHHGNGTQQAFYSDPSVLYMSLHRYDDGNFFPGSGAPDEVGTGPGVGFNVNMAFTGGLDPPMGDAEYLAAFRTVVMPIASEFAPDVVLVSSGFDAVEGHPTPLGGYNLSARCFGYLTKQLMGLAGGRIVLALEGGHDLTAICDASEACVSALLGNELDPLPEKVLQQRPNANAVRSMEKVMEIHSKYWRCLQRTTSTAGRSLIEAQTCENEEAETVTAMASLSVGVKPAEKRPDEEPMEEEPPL
Test [9] concerns CAL-27. Nature of the test: Antitumor activity against human CAL-27 cells without HDAC4 expression xenografted in chick embryo chorio allantoic membrane assessed as reduction in cell proliferation at 5 uM. It counts as functional, cell-based. A general note: Xenograft models place foreign cells or tissue in a host animal.
In test [10] the test system is THP-1. Nature of the test: Effect on p21 protein expression in human THP-1 cells assessed as increase in p21 protein expression level at 5 uM incubated for 24 hrs by Western blot analysis. It counts as functional, cell-based.
For test [11], the system named is CAL-27. Nature of the test: Antiproliferative activity against human CAL-27 cells without HDAC4 expression assessed as inhibition of cell growth incubated for 72 hrs by MTT assay. It counts as functional, cell-based. The note with it: CAL-27, 72 h.
The next test deals with Histone deacetylase 3 (Homo sapiens, UniProt O15379). Put plainly: Inhibition of HDAC3 (unknown origin).
Sequence of Histone deacetylase 3 (O15379 whole entry): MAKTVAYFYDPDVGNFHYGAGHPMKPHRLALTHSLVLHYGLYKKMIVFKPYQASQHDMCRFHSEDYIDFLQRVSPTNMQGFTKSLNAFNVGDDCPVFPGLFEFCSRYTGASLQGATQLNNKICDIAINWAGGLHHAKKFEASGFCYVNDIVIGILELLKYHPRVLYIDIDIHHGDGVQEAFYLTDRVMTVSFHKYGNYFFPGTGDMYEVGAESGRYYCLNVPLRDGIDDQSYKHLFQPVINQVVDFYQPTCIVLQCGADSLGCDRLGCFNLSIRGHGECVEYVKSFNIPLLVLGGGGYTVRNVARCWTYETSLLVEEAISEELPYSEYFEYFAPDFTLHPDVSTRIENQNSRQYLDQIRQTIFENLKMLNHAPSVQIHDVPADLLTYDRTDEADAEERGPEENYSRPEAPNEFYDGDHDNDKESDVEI
The next test concerns the target Histone deacetylase 2 (Homo sapiens, UniProt Q92769). Put plainly: Inhibition of human recombinant HDAC2 using Boc-Lys(Ac)-AMC as substrate preincubated for 5 mins followed by substrate addition and measured after 90 mins by fluorescence based microplate reader analysis.
Test [12] relates to CAL-27. Nature of the test: Antitumor activity against human CAL-27 cells overexpressing HDAC4 implanted in chick embryo chorio allantoic membrane assessed as reduction in cell proliferation at 5 uM. Type of test: functional, cell-based.
Test [13] has as its system THP-1. Nature of the test: Inhibition of Class I/IIb HDAC in human THP-1 cells at 100 uM preincubated for 18 hrs followed by substrate addition and measured after 3 hrs by fluorescence based microplate reader assay relative to control. It counts as cell-based. The conditions noted are these: time 21.0 hrs.
Test [14] deals with THP-1. Put plainly: Inhibition of Class IIa/8 HDAC in human THP-1 cells at 100 uM preincubated for 18 hrs followed by substrate addition and measured after 3 hrs by fluorescence based microplate reader assay relative to control. Type of test: cell-based. The note with it: time 21.0 hrs, values are per cent of control.
Test [15] deals with THP-1. Nature of the test: Synergistic induction of apoptosis in human THP-1 cells assessed as increase in caspase3/7 activation at 5 uM incubated for 48 hrs in the presence of 7.9 nM bortezomib by Hoechst 33342 staining based assay. Type of test: functional, cell-based.
Another test deals with T3, Histone deacetylase 8 (Homo sapiens, UniProt Q9BY41).
T3 sequence (Q9BY41 whole entry): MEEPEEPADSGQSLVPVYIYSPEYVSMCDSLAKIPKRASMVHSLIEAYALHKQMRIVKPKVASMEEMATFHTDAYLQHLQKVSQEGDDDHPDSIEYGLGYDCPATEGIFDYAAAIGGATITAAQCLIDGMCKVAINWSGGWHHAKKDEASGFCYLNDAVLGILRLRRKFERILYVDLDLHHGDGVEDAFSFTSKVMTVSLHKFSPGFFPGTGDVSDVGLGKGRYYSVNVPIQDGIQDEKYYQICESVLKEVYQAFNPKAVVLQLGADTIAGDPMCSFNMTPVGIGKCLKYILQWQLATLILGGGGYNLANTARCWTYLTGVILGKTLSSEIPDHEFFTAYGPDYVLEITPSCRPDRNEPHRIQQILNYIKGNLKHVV
Put plainly: Inhibition of human recombinant HDAC8 using Boc-Lys-(Tfa)-AMC as substrate preincubated for 5 mins followed by substrate addition and measured after 90 mins by fluorescence based microplate reader analysis.

Test [16] deals with THP-1. Nature of the test: Induction of apoptosis in human THP-1 cells assessed as subG1 population at 5 uM incubated for 48 hrs by Propidium iodide staining based flow cytometric analysis. It counts as functional, cell-based.
Test [17] relates to THP-1. Nature of the test: Synergistic induction of apoptosis in human THP-1 cells assessed as increase in subG1 population at 5 uM incubated for 48 hrs in the presence of 7.9 nM bortezomib by Propidium iodide staining based flow cytometric analysis. It counts as functional, cell-based.

The structures appear in SMILES notation. Active and inactive are the calls of the source. The rule behind the calls is not given here.

For orientation: IC50 means the point on the concentration scale where inhibition reaches its midpoint. Usually inhibition stands for the drop in the measured response relative to a control, in per cent. The residual activity is the share of the control activity or signal that is left under treatment. Read a low residual activity as a large loss of activity.

Sequence of Histone deacetylase 2 (Q92769 whole entry): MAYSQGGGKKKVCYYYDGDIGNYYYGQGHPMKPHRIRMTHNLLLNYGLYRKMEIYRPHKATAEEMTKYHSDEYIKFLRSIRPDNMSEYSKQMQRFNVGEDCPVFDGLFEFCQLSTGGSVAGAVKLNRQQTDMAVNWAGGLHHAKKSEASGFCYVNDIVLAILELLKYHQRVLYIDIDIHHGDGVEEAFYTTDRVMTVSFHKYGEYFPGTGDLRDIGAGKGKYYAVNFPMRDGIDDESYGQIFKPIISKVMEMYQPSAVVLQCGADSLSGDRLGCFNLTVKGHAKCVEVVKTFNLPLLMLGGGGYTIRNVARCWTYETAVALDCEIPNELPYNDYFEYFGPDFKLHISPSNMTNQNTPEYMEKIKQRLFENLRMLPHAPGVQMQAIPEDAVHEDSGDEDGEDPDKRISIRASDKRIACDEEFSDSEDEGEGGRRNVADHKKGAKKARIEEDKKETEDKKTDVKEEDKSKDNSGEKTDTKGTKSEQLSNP
Sequence of Histone deacetylase 5 (Q9UQL6 whole entry): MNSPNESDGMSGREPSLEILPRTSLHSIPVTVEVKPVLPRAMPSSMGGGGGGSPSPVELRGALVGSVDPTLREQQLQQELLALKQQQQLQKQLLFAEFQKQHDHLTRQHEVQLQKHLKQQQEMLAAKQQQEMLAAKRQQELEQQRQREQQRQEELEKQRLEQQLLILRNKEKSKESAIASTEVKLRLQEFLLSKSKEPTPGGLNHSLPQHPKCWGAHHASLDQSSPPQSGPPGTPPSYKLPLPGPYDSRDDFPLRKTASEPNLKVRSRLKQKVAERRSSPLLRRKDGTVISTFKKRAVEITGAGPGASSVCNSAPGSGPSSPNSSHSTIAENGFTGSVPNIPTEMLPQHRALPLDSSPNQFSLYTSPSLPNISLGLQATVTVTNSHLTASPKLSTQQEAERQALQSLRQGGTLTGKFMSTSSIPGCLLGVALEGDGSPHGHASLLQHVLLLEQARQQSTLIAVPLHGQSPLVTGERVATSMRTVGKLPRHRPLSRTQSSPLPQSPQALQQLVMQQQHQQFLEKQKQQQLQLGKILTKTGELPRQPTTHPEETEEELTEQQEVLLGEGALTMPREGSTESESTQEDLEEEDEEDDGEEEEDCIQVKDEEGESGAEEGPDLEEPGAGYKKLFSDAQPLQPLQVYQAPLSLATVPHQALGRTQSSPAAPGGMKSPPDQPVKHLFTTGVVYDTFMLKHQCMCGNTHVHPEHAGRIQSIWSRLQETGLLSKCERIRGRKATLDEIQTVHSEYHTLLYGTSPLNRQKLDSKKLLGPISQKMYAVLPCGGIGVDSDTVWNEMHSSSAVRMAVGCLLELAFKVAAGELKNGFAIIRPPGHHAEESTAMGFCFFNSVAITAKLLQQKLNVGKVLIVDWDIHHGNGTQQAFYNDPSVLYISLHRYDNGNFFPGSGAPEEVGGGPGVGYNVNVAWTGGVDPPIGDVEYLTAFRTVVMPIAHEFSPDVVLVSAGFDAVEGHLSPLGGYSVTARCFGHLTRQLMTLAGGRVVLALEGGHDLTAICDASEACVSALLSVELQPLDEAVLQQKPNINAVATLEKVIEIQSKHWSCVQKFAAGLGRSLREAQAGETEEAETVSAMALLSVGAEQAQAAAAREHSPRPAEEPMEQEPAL

As for `CCN(CC)CCNC(=O)c1ccc(-c2noc(C(F)(F)F)n2)cc1`, the IC50 in the test on THP-1 [1] turned out to be 9.24 µM; on Histone deacetylase 5 it was 0.019 µM; with CAL-27 [2], 8.63 µM; on Histone deacetylase 11 it was 66 µM; in test [4], 5.79 µM; in test [7], 0.077 µM. The IC50 was 10.9 µM in test [8]; 0.017 µM at Histone deacetylase 4; 22.5 µM in the test with CAL-27 [11]; 3.82 µM on Histone deacetylase 3; 6.13 µM at Histone deacetylase 2; 4.26 µM at Histone deacetylase 8. Besides, the result with THP-1 [3] and with THP-1 [16] was inactive. Besides, the result in the test with THP-1 [5], in the test with CAL-27 [9], in the test with THP-1 [10], with CAL-27 [12], in the test on THP-1 [15] and in the test on THP-1 [17] was Active. Besides, the Activity in the test on THP-1 [6] was 80%. The compound further had an inhibition in the test with THP-1 [13] of 93%. The compound also yielded a residual activity with THP-1 [14] of 100%.

Values taken from ChEMBL document CHEMBL5537119 (Eur J Med Chem, 2024).
